# Values quoted from earlier work in EP0343306A1, “Liquid pharmaceutical preparation based on theophylline with a retarding effect, and process for producing it” (CARULLA VEKAR, S.A., priority 1988, dated 1989).
# Conditions: in vivo
smiles,measurement,value
Cn1c(=O)c2[nH]cnc2n(C)c1=O [theophylline],plasmatic levels associated with a significant incidence of side effects,above 20 mcg/ml
